Laboratory results reported in patent US20060188938A1, “Compounds for inhibiting beta-amyloid production and methods of identifying the compounds” (priority 2005, published 2006).

Assays:
[1] = system: β-amyloid production by 7W WT APP751 CHO cells; assay: Screening of NF-kB activation inhibitors, Aβ1-40 and Aβ1-42 ELISA (Example 3); assay type: cell-based, Chinese hamster; details: 24 hours (FIG. 6)
Procedure: Most of the compounds screened can be obtained as Calbiochem products from EMD Biosciences, Inc., La Jolla, Calif. R—and S-Niguldipine are available e.g., from Tocris Cookson Inc., Ellisville, Mo. CAPE and Artemisinin are available, e.g., as a Sigma product from Sigma-Aldrich Corp., St. Louis, Mo.
Each compound was dissolved in DMSO. 7W WT APP751 CHO cells overexpressing APP751 were plated into 96-well culture plates in 200 μL of culture medium. Each compound from the library was added to confluent cells to a final concentration of 500 nM, 1 μM, 5 μM, 10 μM and/or 30 μM. After 24 hours of treatment, culture medium was collected and dissolved 10-fold and 2-fold for measuring the level of Aβ1-40 and Aβ1-42, respectively. Aβ1-40 and Aβ1-42 were determined using commercially available ELISAs (Biosource, CA), following the recommendations of the manufacturer.

[2] = system: β-amyloid production by 7W WT APP751 CHO cells; assay: Screening of dihydropyridine compounds (Maybridge), Aβ1-40 and Aβ1-42 ELISA (Example 2); assay type: cell-based, Chinese hamster; details: 30 μM, 24 hours (FIGS. 5A-B)
Procedure: Dihydropyridine compounds were obtained from Maybridge (England). Each compound was dissolved in DMSO. 7W WT APP751 CHO cells overexpressing APP751 were plated into 96-well culture plates in 200 μL of culture medium. Each compound from the library was added to confluent cells to a final concentration of 30 μM. After 24 hours of treatment, culture medium was collected and dissolved 10-fold and 2-fold for measuring the level of Aβ1-40 and Aβ1-42, respectively. Aβ1-40 and Aβ1-42 were determined using commercially available ELISAs (Biosource, CA), following the recommendations of the manufacturer.

Nc1ccc2ncnc(NCCc3ccc(Oc4ccccc4)cc3)c2c1 [6-amino-4-(4-phenoxyphenylethylamino)quinazoline]
significantly decreased: concentration of Aβ1-40 compared to controls ([1]; 500 nM) | concentration of Aβ1-42 compared to controls ([1]; 500 nM) | concentration of total β-amyloid compared to controls ([1]; 500 nM) | concentration of Aβ1-40 compared to controls ([1]; 5 μM) | concentration of Aβ1-42 compared to controls ([1]; 5 μM) | concentration of total β-amyloid compared to controls ([1]; 5 μM)

C=C1C(=O)O[C@@H]2C[C@@]3(C)CCCC(=C)[C@@H]3C[C@H]12 [isohelenin]
significantly decreased: concentration of Aβ1-40 compared to controls ([1]; 5 μM) | concentration of Aβ1-42 compared to controls ([1]; 5 μM) | concentration of total β-amyloid compared to controls ([1]; 5 μM) | concentration of Aβ1-40 compared to controls ([1]; 10 μM) | concentration of Aβ1-42 compared to controls ([1]; 10 μM) | concentration of total β-amyloid compared to controls ([1]; 10 μM)

COC(=O)C1=C(C)NC(C)=C(C(=O)OCCCN2CCC(c3ccccc3)(c3ccccc3)CC2)[C@@H]1c1cccc([N+](=O)[O-])c1.Cl [R-niguldipine]
significantly decreased: concentration of Aβ1-40 compared to controls ([1]; 1 μM) | concentration of Aβ1-42 compared to controls ([1]; 1 μM) | concentration of total β-amyloid compared to controls ([1]; 1 μM) | concentration of Aβ1-40 compared to controls ([1]; 5 μM) | concentration of Aβ1-42 compared to controls ([1]; 5 μM) | concentration of total β-amyloid compared to controls ([1]; 5 μM) | concentration of Aβ1-40 compared to controls ([1]; 30 μM) | concentration of Aβ1-42 compared to controls ([1]; 30 μM) | concentration of total β-amyloid compared to controls ([1]; 30 μM)

CCOC(=O)C1=C(C)NC(C)=C(C(=O)OCC)C1c1ccccc1[N+](=O)[O-] [JFD 03311, diethyl 2,6-dimethyl-4-(2-nitrophenyl)-1,4-dihydropyridine-3,5-dicarboxylate]
significantly decreased: concentration of Aβ1-40 compared to controls [2] | concentration of total β-amyloid (Aβ1-40+Aβ1-42) compared to controls [2]

CCOC(=O)C1=C(C)NC(C)=C(C(=O)OCC)C1c1ccc(Cl)cc1 [BTB 14328, diethyl 4-(4-chlorophenyl)-2,6-dimethyl-1,4-dihydropyridine-3,5-dicarboxylate]
significantly decreased: concentration of Aβ1-40 compared to controls [2] | concentration of Aβ1-42 compared to controls [2] | concentration of total β-amyloid (Aβ1-40+Aβ1-42) compared to controls [2]

COC(=O)C1=C(C)NC(C)=C(C(=O)OC)C1c1ccc(Cl)c(Cl)c1 [JFD 03293, dimethyl 4-(3,4-dichlorophenyl)-2,6-dimethyl-1,4-dihydropyridine-3,5-dicarboxylate]
significantly decreased: concentration of Aβ1-40 compared to controls [2] | concentration of Aβ1-42 compared to controls [2] | concentration of total β-amyloid (Aβ1-40+Aβ1-42) compared to controls [2]

CC1=C(C#N)C(c2ccc(Cl)c(Cl)c2)C(C#N)=C(C)N1 [JFD 03292, 4-(3,4-dichlorophenyl)-2,6-dimethyl-1,4-dihydropyridine-3,5-dicarbonitrile]
significantly decreased: concentration of Aβ1-40 compared to controls [2] | concentration of total β-amyloid (Aβ1-40+Aβ1-42) compared to controls [2]

CCOC(=O)C1=C(C)NC(C)=C(C(=O)OCC)C1c1ccc(F)cc1 [JFD 03318, diethyl 4-(4-fluorophenyl)-2,6-dimethyl-1,4-dihydropyridine-3,5-dicarboxylate]
significantly decreased: concentration of Aβ1-40 compared to controls [2] | concentration of Aβ1-42 compared to controls [2] | concentration of total β-amyloid (Aβ1-40+Aβ1-42) compared to controls [2]

CCOC(=O)C1=C(C)NC(C)=C(C(=O)OCC)C1c1ccc(OC)cc1Cl [RJC 03413, diethyl 4-(2-chloro-4-methoxyphenyl)-2,6-dimethyl-1,4-dihydro-3,5-pyridinedicarboxylate]
significantly decreased: concentration of Aβ1-40 compared to controls [2] | concentration of total β-amyloid (Aβ1-40+Aβ1-42) compared to controls [2]

N#Cc1c(-c2cn(-c3ccccc3)nc2-c2ccccc2)cc(-c2ccccc2)[nH]c1=O [HTS 07578, 4-(1,3-diphenyl-1H-pyrazol-4-yl)-2-oxo-6-phenyl-1,2-dihydro-3-pyridinecarbonitrile]
significantly decreased: concentration of Aβ1-40 compared to controls [2] | concentration of Aβ1-42 compared to controls [2] | concentration of total β-amyloid (Aβ1-40+Aβ1-42) compared to controls [2]

CCOC(=O)C1=C(C)NC(C)=C(C(=O)OCC)C1c1ccc([N+](=O)[O-])cc1 [JFD 03266, diethyl 2,6-dimethyl-4-(4-nitrophenyl)-1,4-dihydropyridine-3,5-dicarboxylate]
significantly decreased: concentration of Aβ1-40 compared to controls [2] | concentration of total β-amyloid (Aβ1-40+Aβ1-42) compared to controls [2]

COC(=O)C1=C(C)NC(C)=C(C(=O)OC)C1c1ccc(Cl)cc1Cl [RJC 03423, dimethyl 4-(2,4-dichlorophenyl)-2,6-dimethyl-1,4-dihydro-3,5-pyridinedicarboxylate]
significantly decreased: concentration of Aβ1-40 compared to controls [2] | concentration of Aβ1-42 compared to controls [2] | concentration of total β-amyloid (Aβ1-40+Aβ1-42) compared to controls [2]

CCOC(=O)C1=C(C)NC(C)=C(C(=O)OCC)C1c1ccc(-c2cc(C(F)(F)F)cc(C(F)(F)F)c2)o1 [CD 04170, diethyl 4-{5-[3,5-di(trifluoromethyl)phenyl]-2-furyl}-2,6-dimethyl-1,4-dihydro-pyridine-3,5-dicarboxylate]
significantly decreased: concentration of Aβ1-40 compared to controls [2] | concentration of Aβ1-42 compared to controls [2] | concentration of total β-amyloid (Aβ1-40+Aβ1-42) compared to controls [2]

COC(=O)C1=C(C)NC(C)=C(C(=O)OC)C1c1ccc(-c2ccsc2C(=O)OC)o1 [SEW 02070, dimethyl 4-{5-[2-(methoxycarbonyl)-3-thienyl]-2-furyl}-2,6-dimethyl-1,4-dihydropyridine-3,5-dicarboxylate]
significantly decreased: concentration of Aβ1-40 compared to controls [2] | concentration of total β-amyloid (Aβ1-40+Aβ1-42) compared to controls [2]

CCOC(=O)C1=C(C)NC(C)=C(C(=O)OCC)C1c1ccc(Cl)c(Cl)c1 [JFD 03294, diethyl 4-(3,4-dichlorophenyl)-2,6-dimethyl-1,4-dihydropyridine-3,5-dicarboxylate]
significantly decreased: concentration of Aβ1-40 compared to controls [2] | concentration of Aβ1-42 compared to controls [2] | concentration of total β-amyloid (Aβ1-40+Aβ1-42) compared to controls [2]
